Results on 9 compounds are retold here after ChEMBL document CHEMBL1146209, “In-silico fragment-based identification of novel angiogenesis inhibitors” (Bioorg Med Chem Lett, 2007).

The subject of this experiment is HUVEC. The experiment is described as follows: Cytotoxicity against HUVEC after 24 hrs by MTT assay. The format is cell-based. The conditions noted are these: Homo sapiens. In general terms: Formazan colour is commonly taken as a measure of viable cells.

pIC50: −log10 of the molar value.

`O=c1c(-c2ccc(O)cc2)coc2cc(O)cc(O)c12` [GENISTEIN] gave a pIC50 of 4.06. As for `Clc1ccc2c(NC3CCC(NC4CCCCC4)CC3)ccnc2c1` (centres undefined), the figure is 4.89; as for `O=C1c2ccccc2C(=O)c2c1oc1c2ccc2ccccc21`, 4.20; as for `O=C1c2ccccc2C(=O)C(CCCc2ccc(Oc3ccccc3)cc2)C1O` (centres undefined), 4.12. As for `O=C(O)c1ccc(Nc2ccnc3cc(Cl)ccc23)cc1O`, the figure is 4.05. Under `O=S(=O)(Nc1nccs1)c1ccc(Nc2ccnc3cc(Cl)ccc23)cc1` stands 4.13; under `Clc1ccc(Nc2ccnc3cc(Cl)ccc23)cc1`, 4.06. For `Oc1ccc(Nc2ccnc3cc(Cl)ccc23)cc1`, the pIC50 is 4.09. As for `COc1ccc(CC(N)C(=O)N(C)C2C(CO)OC(n3cnc4c(N(C)C)ncnc43)C2O)cc1` (centres undefined), the figure is 4.00.

A word on the pIC50: it is the negative decadic logarithm of the IC50, by convention in mol/L.
